{"source": "patent US20100035867A1", "about": "(priority 2006, published 2010)", "key": {"[1]": {"biological_target": "guanylyl cyclase type C (GC-C) (Homo sapiens, UniProt P25092)", "sequence (P25092 24-1073)": "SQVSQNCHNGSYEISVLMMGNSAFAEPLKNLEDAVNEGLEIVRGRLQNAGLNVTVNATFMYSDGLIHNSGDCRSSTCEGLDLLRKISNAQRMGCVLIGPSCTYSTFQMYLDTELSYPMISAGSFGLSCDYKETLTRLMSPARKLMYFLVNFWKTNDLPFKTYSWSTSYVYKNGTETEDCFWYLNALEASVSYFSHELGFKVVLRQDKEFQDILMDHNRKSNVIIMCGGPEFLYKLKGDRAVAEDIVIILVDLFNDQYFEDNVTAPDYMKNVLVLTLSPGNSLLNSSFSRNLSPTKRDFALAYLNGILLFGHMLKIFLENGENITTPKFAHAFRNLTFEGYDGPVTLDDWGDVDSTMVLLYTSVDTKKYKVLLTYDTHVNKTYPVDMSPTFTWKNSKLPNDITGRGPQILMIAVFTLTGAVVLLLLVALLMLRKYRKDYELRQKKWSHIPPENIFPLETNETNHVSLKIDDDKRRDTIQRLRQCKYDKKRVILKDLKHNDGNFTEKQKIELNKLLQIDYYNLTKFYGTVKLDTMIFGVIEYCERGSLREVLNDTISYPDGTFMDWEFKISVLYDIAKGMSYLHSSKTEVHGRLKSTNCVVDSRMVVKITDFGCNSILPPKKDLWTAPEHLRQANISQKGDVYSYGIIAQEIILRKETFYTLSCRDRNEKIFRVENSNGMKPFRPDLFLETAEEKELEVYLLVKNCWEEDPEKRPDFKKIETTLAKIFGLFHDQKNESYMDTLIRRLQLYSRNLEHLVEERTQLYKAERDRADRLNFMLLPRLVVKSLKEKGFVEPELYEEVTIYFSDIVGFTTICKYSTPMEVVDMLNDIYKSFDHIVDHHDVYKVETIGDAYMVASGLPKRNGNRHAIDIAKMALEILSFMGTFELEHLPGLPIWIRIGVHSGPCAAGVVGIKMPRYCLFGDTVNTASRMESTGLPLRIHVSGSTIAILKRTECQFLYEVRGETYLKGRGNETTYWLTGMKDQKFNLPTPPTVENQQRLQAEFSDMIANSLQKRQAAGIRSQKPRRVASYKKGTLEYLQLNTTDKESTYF", "test": "Guanylin-induced activation of GC-C in T84 cells (cyclic GMP accumulation)"}, "[2]": {"tested_on": "adenylyl cyclase or guanylyl cyclase", "assay_type": "cell-based", "conditions": "read-out: typical IC50"}, "[3]": {"biological_target": "pertussis adenylyl cyclase toxin (Bordetella pertussis, UniProt P0DKX7)", "sequence (P0DKX7 whole entry, looked up)": "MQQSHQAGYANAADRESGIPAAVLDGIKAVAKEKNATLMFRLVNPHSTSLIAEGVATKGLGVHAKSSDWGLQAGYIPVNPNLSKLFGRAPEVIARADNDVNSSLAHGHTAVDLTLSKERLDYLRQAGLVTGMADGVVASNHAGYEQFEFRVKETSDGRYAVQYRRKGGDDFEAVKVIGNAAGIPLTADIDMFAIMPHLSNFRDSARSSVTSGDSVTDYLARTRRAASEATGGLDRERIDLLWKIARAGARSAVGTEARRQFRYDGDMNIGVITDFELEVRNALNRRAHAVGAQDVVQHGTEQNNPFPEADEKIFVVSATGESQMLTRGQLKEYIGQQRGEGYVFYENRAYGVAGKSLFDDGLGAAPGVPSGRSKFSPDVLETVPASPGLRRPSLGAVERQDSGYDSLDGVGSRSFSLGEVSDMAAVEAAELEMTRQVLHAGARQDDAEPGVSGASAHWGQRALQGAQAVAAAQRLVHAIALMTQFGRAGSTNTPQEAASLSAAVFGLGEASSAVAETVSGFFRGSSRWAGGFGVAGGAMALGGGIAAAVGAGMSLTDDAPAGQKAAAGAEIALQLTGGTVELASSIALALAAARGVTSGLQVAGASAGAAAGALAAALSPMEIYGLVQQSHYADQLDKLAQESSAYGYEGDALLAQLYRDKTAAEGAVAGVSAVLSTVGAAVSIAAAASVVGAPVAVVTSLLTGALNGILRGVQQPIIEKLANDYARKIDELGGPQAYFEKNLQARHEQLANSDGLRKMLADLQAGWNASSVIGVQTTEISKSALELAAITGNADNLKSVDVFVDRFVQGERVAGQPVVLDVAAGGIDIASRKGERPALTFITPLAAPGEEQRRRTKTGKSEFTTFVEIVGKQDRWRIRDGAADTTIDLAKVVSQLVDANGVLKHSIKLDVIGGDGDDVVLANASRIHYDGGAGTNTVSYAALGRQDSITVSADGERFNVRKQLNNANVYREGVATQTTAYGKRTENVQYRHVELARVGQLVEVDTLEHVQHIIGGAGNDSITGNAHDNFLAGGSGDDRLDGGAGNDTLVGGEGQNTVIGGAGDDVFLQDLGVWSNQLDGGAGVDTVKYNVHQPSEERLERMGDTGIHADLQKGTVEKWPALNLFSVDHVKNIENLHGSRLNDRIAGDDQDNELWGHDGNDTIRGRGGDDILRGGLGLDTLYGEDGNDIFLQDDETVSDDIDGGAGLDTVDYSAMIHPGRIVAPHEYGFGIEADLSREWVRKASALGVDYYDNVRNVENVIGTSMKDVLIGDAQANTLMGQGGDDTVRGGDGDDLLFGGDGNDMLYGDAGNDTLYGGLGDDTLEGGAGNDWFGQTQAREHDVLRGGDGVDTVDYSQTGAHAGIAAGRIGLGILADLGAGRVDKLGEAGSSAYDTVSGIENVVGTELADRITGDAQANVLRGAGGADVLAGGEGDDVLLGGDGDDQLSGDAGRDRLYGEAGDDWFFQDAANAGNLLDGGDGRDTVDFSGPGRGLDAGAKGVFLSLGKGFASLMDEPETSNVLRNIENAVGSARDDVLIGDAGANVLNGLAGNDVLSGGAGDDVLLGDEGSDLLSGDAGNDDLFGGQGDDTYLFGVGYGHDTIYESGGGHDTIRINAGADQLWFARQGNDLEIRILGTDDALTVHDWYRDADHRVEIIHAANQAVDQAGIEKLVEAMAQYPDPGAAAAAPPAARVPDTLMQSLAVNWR", "test": "Cyclic AMP accumulation in T84 cells infected with pertussis adenylyl cyclase toxin", "assay_type": "cell-based", "conditions": "50 μM compound", "method": "The assay was performed in T84 cells by the methods described in Example 2 and Ahuja, N.; Kumar, P.; Bhatnagar, R., The adenylate cyclase toxins. Crit Rev Microbiol 2004, 30, (3), 187-96, but the amount of cyclic AMP accumulated was assayed with a commercially available kit from Cayman Chemical Co.\nCells were treated with pertussis adenylyl cyclase toxin at 1 μg/ml in Dulbecco's minimal essential medium for 60 min in the presence of vehicle DMSO (0.1%) or 50 μM compound IIb for 60 min and then medium was aspirated and replaced with DPBS containing 1 mM IBMX and DMSO or compound IIb, respectively, for the vehicle and compound IIb-treated samples. After 10 min incubation, the amount of cyclic AMP was measured. […] N=3."}, "adenylyl cyclase": {"tested_on": "adenylyl cyclase", "assay_type": "cell-based, human"}, "[4]": {"biological_target": "T1, membrane guanylyl cyclase (guanylyl cyclase type A, GC-A) (Homo sapiens, UniProt P16066)", "T1 sequence (P16066 33-1061)": "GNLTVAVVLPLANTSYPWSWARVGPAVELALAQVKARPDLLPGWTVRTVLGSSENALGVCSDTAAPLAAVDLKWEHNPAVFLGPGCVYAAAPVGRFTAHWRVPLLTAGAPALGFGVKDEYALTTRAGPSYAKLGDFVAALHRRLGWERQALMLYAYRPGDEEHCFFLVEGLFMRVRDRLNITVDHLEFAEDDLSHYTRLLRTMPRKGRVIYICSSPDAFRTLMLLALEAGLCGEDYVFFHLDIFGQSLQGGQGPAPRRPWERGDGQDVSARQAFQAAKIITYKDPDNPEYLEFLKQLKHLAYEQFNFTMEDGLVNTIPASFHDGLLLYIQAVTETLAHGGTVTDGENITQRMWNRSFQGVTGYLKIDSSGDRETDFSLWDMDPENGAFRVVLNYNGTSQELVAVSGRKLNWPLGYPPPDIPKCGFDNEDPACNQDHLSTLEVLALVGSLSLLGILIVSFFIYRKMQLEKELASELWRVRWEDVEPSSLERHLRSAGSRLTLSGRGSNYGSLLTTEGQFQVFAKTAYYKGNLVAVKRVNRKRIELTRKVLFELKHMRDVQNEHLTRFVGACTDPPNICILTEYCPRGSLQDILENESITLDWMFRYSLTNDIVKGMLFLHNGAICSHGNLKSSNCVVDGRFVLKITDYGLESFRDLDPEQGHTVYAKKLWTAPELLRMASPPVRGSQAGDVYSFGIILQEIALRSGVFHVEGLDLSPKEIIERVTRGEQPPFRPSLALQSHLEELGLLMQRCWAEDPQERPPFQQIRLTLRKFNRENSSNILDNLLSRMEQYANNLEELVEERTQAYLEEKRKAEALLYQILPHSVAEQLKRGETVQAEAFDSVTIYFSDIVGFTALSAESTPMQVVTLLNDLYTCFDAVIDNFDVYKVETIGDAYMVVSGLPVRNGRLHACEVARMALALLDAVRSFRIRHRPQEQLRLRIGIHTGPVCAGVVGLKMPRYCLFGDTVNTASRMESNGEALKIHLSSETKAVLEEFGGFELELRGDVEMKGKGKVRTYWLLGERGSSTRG", "test": "ANP-induced cyclic GMP accumulation in BE-2(C) neuroblastoma cells"}, "T84 cells": {"tested_on": "T84 cells", "assay_type": "cell-based, human", "conditions": "50 μM compound"}, "[5]": {"biological_target": "T2, membrane guanylyl cyclase (guanylyl cyclase type B, GC-B) (Homo sapiens, UniProt P20594)", "T2 sequence (P20594 23-1047)": "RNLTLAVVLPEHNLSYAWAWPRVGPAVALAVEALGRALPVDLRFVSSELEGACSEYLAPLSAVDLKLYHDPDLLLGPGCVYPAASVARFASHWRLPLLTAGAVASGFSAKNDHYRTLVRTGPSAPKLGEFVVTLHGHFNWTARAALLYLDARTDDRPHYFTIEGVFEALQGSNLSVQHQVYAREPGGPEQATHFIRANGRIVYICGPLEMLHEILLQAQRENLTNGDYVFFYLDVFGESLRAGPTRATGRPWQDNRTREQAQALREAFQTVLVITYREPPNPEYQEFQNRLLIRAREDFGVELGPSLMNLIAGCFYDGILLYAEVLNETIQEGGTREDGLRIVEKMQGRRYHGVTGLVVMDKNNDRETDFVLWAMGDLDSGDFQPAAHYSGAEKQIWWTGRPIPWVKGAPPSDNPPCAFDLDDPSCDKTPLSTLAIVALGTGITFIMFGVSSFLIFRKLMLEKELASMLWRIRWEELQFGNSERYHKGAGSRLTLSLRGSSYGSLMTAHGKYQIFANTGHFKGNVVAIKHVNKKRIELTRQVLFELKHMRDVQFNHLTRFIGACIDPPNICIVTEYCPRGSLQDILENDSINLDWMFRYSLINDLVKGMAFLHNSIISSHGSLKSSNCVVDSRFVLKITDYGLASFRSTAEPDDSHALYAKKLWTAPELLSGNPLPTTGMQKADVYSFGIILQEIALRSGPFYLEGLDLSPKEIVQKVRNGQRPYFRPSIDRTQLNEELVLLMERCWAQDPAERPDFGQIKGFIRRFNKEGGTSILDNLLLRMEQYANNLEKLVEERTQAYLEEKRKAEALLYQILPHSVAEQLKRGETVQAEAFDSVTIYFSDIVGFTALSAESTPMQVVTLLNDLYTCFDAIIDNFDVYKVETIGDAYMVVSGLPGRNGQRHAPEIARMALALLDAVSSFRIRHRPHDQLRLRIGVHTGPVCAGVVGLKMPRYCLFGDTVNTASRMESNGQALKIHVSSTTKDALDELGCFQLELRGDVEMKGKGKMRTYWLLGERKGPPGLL", "test": "CNP-induced cyclic GMP accumulation in BE-2(C) neuroblastoma cells"}}, "data": [{"smiles": "Cn1c2c(c(=O)n(C)c1=O)C(c1cccc(Br)c1)C1=C(N2)c2ccccc2C1=O", "note": "(stereo not shown) [compound IIb]", "values": [{"measurement": "IC50", "setting": "[1]", "result": 7.2, "unit": "µM"}, {"measurement": "inhibition at 50 µM", "setting": "[1]; T84, read-out: inhibition of guanylin-induced cyclic GMP", "result": 58.9, "unit": "%"}, {"measurement": "level of cyclic GMP", "setting": "[1]; T84 cells, 500 nM guanylin, 50 μM compound, vehicle 124±13", "result": "51±6", "unit": "pmol/mg protein"}, {"measurement": "IC50", "setting": "[2]", "result": "~5", "unit": "µM"}, {"measurement": "cyclic AMP accumulation", "setting": "[3]; toxin 1 μg/ml 60 min, vehicle 9.97±0.72", "result": "4.06±0.44", "unit": "nmol/mg protein"}, {"measurement": "decrease of cyclic AMP accumulation", "setting": "[3]; toxin 1 μg/ml", "result": 59.2, "unit": "%"}, {"measurement": "amount of cyclic AMP accumulated", "setting": "adenylyl cyclase", "result": "1.2±0.1", "unit": "nmol/mg protein"}, {"measurement": "inhibition of cholera toxin-induced cyclic AMP", "setting": "adenylyl cyclase; T84 cells, cholera toxin 1 μg/ml, 50 μM compound", "result": 84.6, "unit": "%"}, {"measurement": "IC50", "setting": "[4]", "result": 8.4, "unit": "µM"}, {"measurement": "increase in chloride efflux induced by 8-bromo cyclic AMP or ionomycin", "setting": "T84 cells", "result": "not influenced"}, {"measurement": "increase in chloride efflux induced by isoproterenol, cholera toxin and forskolin", "setting": "T84 cells", "result": "significantly suppressed"}, {"measurement": "chloride anion efflux, increase in fluorescence of MQAE", "setting": "T84 cells; 50 μM forskolin, forskolin alone 2690, baseline 477", "result": 428, "unit": "relative units in 10 min"}, {"measurement": "IC50", "setting": "[5]", "result": 11.2, "unit": "µM"}]}]}
